# Measured values reported in ChEMBL document CHEMBL1201862, “PubChem BioAssay data set” (2004).
# Activity calls are given as the source filed them.
# What was measured:
# [1] = system: H9c2; assay: cells; assay type: functional, cell-based; settings: Rattus norvegicus, H9c2, Myocardium;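 note: confirmatory concentration-response retest of ultra-high-throughput screening hits for modulation of myocardial damage; cell death induced by hydrogen peroxide oxidative stress; compound pretreatment for 60 min then peroxide exposure for 2 h; potency is for protecting the cells against peroxide damage rather than for killing them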
# [2] = target: Nonstructural protein 1 (Influenza A virus, UniProt Q194T2); assay type: functional, Influenza A virus (A/California/07/2009(H1N1))
# [3] = inhibitors of Bluetongue virus cytopathic effect, confirmation, arbovirus, BSR cells (AID 1250); assay type: functional;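 note: protection from viral cytopathic effect measured as cell viability by ATP luminescence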
# [4] = target: Lytic switch protein BZLF1 (Epstein-Barr virus (strain B95-8) (HHV-4) (Human herpesvirus 4), UniProt P03206); assay: EBV ZTA inhibitors, dose response, counter-screen for EBNA-1 inhibitor project, biochemical, fluorescence polarization, Epstein-Barr virus, 1536-well (AID 2377); parameters: species or system human gammaherpesvirus 4;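 note: fluorescence polarization of Cy5-labelled ZRE DNA probe bound by purified Zta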
# [5] = target: Epstein-Barr nuclear antigen 1 (Epstein-Barr virus (strain B95-8) (HHV-4) (Human herpesvirus 4), UniProt P03211); assay: EBNA-1 inhibitors, dose response, biochemical, fluorescence polarization, 1536-well (AID 2381); parameters: species or system human gammaherpesvirus 4;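 note: fluorescence polarization of a Cy5 DNA probe bound by EBNA-1 protein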
# [6] = target: T1, Sphingosine 1-phosphate receptor 3 (Homo sapiens, UniProt Q99500); assay: Dose Response Cell-Based Assay for Agonists of the Sphingosine 1-Phosphate Receptor 3 (S1P3): Purchased Analogues. [Related pubchem assays: 373, 439 ]; assay type: functional
# [7] = target: T2, Sphingosine 1-phosphate receptor 1 (Homo sapiens, UniProt P21453); assay: Dose Response Cell-Based Assay for Agonists of the Sphingosine 1-Phosphate Receptor 1 (S1P1): Purchased Analogues. [Related pubchem assays: 1192, 373, 439 ]; assay type: functional
# [8] = target: Sphingosine 1-phosphate receptor 2 (Homo sapiens, UniProt O95136); assay: Dose Response Cell-Based Assay for Agonists of the Sphingosine 1-Phosphate Receptor 2 (S1P2): Purchased Analogues. [Related pubchem assays: 1192, 373, 439 ]; assay type: functional
# [9] = target: T3, Streptokinase A (Streptococcus pyogenes serotype M1, UniProt P10520); assay: S. pyogenes streptokinase expression inhibitors, potency, dose response, plasminogen activation absorbance, OD405 (AID 1914); assay type: functional, Streptococcus pyogenes M1 GAS;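 note: secreted streptokinase activity via plasminogen activation per viability signal from cell pellet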
# T3 sequence (P10520 whole entry): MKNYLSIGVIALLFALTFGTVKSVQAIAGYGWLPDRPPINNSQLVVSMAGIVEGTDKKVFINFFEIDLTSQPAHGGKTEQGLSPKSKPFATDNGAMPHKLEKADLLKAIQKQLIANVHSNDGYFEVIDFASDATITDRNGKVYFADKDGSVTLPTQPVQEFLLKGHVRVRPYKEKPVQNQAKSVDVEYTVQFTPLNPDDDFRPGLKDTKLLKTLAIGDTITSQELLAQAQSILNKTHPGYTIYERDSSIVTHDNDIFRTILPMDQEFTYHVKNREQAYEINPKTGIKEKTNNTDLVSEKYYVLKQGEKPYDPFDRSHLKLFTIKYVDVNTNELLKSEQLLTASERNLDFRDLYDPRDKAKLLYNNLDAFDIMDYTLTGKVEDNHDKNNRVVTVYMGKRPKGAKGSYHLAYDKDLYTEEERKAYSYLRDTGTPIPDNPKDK
# [10] = target: Matrix metalloproteinase-14 (Homo sapiens, UniProt P50281); assay: Dose Response confirmation of uHTS hits for a small molecule inhibitors of MT1-MMP activation in a fluorescence assay set 2.; assay type: functional
# [11] = system: Streptococcus sp. 'group A'; assay: growth inhibition of control SK(-) GAS strain, dose response, counter-screen for streptokinase expression inhibitor project, luminescence, kanamycin, BacTiterGlo, confirmation (AID 1900); assay type: functional, organism-based
# [12] = enhancers of respiration in Yfh1-depleted yeast, dose response, Friedreich's ataxia, plus single-dose screen (AID 1465); assay type: functional;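 note: yeast depleted of Yfh1p frataxin homolog grown on glycerol needing respiration; WST-1 tetrazolium dye reduction as measure of cellular dehydrogenase metabolic activity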
# [13] = target: T4, G-protein coupled receptor 55 (Homo sapiens, UniProt Q9Y2T6); assay: GPR55 antagonists blocking LPI-driven arrestin recruitment, primary screen, imaging, U2OS, beta-arrestin-GFP, LPI agonist (AID 2013); assay type: functional;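 note: antagonist potency measured as reduced agonist-driven arrestin aggregation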
# [14] = target: T5, Kappa-type opioid receptor (Homo sapiens, UniProt P41145); assay type: functional
# [15] = system: Streptococcus; assay: Group A Streptococcus viability loss, dose response, counter-screen for streptokinase expression inhibitor project, luminescence, BacTiterGlo (AID 1915); assay type: functional, organism-based;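 note: potency for reduction of bacterial viability or growth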
# [16] = target: T5, Kappa-type opioid receptor; assay type: functional; remark: listed apart in the source
# [17] = target: Beta-galactosidase (Escherichia coli, UniProt Q8VNN2); assay type: functional
# [18] = target: T6, Bcl-2-related protein A1 (Mus musculus, UniProt Q07440); assay: Bfl-1 inhibitors, primary screen, biochemical, fluorescence polarization, FITC-Bid, mouse (AID 432)
# T6 sequence (Q07440 whole entry): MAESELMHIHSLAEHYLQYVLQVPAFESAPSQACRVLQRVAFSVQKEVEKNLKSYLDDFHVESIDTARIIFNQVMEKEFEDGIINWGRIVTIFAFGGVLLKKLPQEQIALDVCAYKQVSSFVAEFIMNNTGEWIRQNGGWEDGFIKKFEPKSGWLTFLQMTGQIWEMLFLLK
# [19] = target: fMet-Leu-Phe receptor (Homo sapiens, UniProt P21462); assay: FPR ligands, dose response (AID 519); assay type: functional
# [20] = target: T6, Bcl-2-related protein A1; assay: Bfl-1 inhibitors blocking BH3 peptide binding, confirmation, biochemical, TR-FRET, mouse Bfl-1 (AID 621);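 note: TR-FRET binding of GST-Bfl-1 to FITC-labelled Bid peptide via terbium antibody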
# [21] = A High Throughput Confirmatory Assay used to Identify Novel Compounds that Inhibit Mycobacterium Tuberculosis in the absence of Glycerol.; assay type: functional
# [22] = target: 5-hydroxytryptamine receptor 1E (Homo sapiens, UniProt P28566); assay: Counterscreen assay for S1P3 antagonists: Dose response cell-based high throughput screening assay to identify antagonists of the 5-Hydroxytryptamine Receptor Subtype 1E (5HT1E). [Related pubchem assays: 1429, 485 ]; assay type: functional
# [23] = HEp-2 cell cytotoxicity, dose response, cytotoxicity control for RSV inhibitor project, HTS (AID 2410); assay type: functional; settings: human respiratory syncytial virus
# [24] = target: T1, Sphingosine 1-phosphate receptor 3; assay: Dose response cell-based high throughput screening assay for antagonists of the Sphingosine 1-Phosphate Receptor 3 (S1P3). [Related pubchem assays: 1429, 485 ]; assay type: functional
# [25] = system: Vero; assay: Vero cell cytotoxicity, cytotoxicity control for flavivirus capping enzyme inhibitors (AID 588742); assay type: functional; settings: Chlorocebus sabaeus
# [26] = target: Mannose-6-phosphate isomerase (Homo sapiens, UniProt P34949); assay: inhibitors of human PMI, primary screen, biochemical, fluorescence intensity, coupled assay (AID 1209)
# [27] = target: NS3 (Hepatitis C virus, UniProt A3EZJ3); assay: PubChem AID 2173; parameters: species or system Hepacivirus hominis
# [28] = target: Induced myeloid leukemia cell differentiation protein Mcl-1 (Homo sapiens, UniProt Q07820); assay type: functional
# [29] = target: T7, Sphingosine 1-phosphate receptor 4 (Homo sapiens, UniProt O95977); assay: Fluorescence dose response cell-based high throughput screening assay for antagonists of the Sphingosine 1-Phosphate Receptor 4 (S1P4). [Related pubchem assays: 1524 (Confirmation in triplicates.), 1510 (Primary screen.)]; assay type: functional
# T7 sequence (O95977 whole entry): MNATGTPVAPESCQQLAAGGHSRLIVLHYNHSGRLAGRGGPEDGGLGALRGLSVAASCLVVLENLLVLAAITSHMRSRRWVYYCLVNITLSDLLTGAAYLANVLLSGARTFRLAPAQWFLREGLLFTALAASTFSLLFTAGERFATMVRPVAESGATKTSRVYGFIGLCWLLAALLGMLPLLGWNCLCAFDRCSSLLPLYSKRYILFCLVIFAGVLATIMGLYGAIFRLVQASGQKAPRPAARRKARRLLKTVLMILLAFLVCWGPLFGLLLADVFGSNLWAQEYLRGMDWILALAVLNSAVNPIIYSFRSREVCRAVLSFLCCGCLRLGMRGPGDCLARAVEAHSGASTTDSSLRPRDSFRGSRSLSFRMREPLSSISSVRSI
# [30] = cytotoxicity toward DRD oncogenic fibroblasts, dose response, cell-based, non-viral oncogenic, luminescence (AID 1934); assay type: functional; settings: Homo sapiens
# [31] = system: BJ; assay: cytotoxicity toward BJ-TERT fibroblasts, dose response, cell-based, RAS-independent, luminescence (AID 1933); assay type: functional; settings: Homo sapiens
# [32] = system: BJ; assay: cells; assay type: functional, cell-based; settings: Homo sapiens
# [33] = cytotoxicity in HEK-293T cells, dose response, cytotoxicity control for TCR NF-kB inhibitor project, luminescence, T-cell screen hits (AID 489026); assay type: functional, cell-based;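 note: cells exposed to compound about 14 hours before the viability readout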
# [34] = THP-1 cell cytotoxicity, dose response, cytotoxicity control for non-replicating M. tuberculosis project (AID 489025); assay type: functional
# [35] = target: T8, Heat shock factor protein 1 (Mus musculus, UniProt P38532); assay: inhibition of MG132-induced HSE-luciferase signal, confirmation, cell-based, NIH3T3, luminescence, dose retest (AID 2382); assay type: functional;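 note: NIH3T3 fibroblasts with HSF1-driven luciferase reporter stressed by proteasome inhibitor MG132; luminescence from HSF1-driven luciferase expression after 8 hours of MG132 stress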
# T8 sequence (P38532 whole entry): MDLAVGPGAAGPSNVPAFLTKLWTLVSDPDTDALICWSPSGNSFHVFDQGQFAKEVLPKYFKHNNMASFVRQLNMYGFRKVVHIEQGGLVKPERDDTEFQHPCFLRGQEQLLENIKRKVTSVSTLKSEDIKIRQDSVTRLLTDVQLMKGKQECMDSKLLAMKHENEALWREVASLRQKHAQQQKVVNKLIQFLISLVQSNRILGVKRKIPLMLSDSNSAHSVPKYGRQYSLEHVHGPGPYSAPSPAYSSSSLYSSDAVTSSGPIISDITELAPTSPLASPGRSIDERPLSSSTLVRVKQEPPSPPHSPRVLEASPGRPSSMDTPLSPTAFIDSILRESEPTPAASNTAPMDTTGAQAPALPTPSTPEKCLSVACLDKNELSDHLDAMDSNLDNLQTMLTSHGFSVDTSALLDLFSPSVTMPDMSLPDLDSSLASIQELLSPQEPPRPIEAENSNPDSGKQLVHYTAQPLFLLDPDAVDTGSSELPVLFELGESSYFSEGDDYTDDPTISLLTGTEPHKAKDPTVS
# [36] = system: BJ; assay: cytotoxicity toward BJ-TERT-LT-ST fibroblasts, dose response, cell-based, RAS-independent, luminescence (AID 1935); assay type: functional; settings: Homo sapiens;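 note: BJ fibroblasts immortalized with TERT plus LT and ST oncogenes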
# [37] = target: T4, G-protein coupled receptor 55; assay: GPR55 agonists via beta-arrestin recruitment, primary screen, imaging, U2OS cells, beta-arrestin-GFP redistribution (AID 1961); assay type: functional
# [38] = target: T2, Sphingosine 1-phosphate receptor 1; assay type: functional
# [39] = system: BJ; assay: cytotoxicity toward Ras-transformed BJeLR fibroblasts, dose response, cell-based, alamar blue fluorescence, cherrypicked samples (AID 2631); assay type: functional; settings: Homo sapiens;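 note: confirmatory dose-response assay in RAS-dependent BJ fibroblasts engineered with TERT, LT and ST, with cytotoxicity read by fluorescence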
# T4 sequence (Q9Y2T6 whole entry): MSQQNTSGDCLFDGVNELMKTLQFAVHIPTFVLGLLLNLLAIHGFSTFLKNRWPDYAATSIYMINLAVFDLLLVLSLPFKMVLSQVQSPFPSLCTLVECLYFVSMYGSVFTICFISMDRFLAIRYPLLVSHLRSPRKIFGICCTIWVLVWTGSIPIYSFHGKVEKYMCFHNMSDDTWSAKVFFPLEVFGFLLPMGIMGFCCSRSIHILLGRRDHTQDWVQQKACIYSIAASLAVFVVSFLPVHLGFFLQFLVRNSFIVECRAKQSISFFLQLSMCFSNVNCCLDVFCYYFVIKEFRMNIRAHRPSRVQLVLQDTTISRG
# T5 sequence (P41145 whole entry): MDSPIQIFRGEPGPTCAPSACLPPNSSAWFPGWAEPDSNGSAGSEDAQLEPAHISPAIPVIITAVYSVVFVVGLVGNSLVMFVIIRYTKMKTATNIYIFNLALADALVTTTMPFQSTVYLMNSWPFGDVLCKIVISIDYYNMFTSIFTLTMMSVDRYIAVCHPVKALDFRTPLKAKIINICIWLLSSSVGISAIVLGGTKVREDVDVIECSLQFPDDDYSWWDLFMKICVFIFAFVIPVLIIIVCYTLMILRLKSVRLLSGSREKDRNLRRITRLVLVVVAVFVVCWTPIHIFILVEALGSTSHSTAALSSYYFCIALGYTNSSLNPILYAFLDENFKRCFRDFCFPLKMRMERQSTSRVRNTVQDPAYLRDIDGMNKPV
# T1 sequence (Q99500 whole entry): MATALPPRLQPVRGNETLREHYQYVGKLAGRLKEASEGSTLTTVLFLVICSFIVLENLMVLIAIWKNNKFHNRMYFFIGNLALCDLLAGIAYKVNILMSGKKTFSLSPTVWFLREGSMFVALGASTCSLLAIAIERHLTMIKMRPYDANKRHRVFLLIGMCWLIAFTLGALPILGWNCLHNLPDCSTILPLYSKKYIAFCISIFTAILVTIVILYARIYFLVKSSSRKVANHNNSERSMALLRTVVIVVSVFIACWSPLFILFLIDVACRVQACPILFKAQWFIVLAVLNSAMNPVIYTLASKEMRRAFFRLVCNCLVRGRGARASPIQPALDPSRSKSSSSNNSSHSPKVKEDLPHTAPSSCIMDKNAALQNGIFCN
# T2 sequence (P21453 whole entry): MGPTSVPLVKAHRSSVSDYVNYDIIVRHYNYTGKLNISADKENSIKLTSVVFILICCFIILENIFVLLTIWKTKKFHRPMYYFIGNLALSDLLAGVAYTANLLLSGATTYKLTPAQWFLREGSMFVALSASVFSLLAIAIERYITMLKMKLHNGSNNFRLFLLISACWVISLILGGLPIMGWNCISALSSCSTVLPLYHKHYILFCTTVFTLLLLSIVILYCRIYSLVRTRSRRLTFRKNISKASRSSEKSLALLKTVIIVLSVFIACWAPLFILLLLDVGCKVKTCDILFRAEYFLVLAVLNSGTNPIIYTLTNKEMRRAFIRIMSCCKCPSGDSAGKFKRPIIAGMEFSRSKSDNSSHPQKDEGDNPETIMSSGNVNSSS
# Sequence of Mannose-6-phosphate isomerase (P34949 whole entry): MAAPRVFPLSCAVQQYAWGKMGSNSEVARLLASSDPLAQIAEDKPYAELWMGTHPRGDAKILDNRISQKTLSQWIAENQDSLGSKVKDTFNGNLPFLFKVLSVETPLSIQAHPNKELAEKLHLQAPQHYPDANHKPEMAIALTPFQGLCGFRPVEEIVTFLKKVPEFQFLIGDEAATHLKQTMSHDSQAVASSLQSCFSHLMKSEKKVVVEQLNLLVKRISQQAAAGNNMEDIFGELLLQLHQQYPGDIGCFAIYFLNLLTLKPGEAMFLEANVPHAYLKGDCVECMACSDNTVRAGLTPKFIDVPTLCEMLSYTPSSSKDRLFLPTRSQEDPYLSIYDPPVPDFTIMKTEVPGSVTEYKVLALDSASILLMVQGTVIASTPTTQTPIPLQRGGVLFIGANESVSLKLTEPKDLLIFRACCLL
# Sequence of NS3 (A3EZJ3 whole entry): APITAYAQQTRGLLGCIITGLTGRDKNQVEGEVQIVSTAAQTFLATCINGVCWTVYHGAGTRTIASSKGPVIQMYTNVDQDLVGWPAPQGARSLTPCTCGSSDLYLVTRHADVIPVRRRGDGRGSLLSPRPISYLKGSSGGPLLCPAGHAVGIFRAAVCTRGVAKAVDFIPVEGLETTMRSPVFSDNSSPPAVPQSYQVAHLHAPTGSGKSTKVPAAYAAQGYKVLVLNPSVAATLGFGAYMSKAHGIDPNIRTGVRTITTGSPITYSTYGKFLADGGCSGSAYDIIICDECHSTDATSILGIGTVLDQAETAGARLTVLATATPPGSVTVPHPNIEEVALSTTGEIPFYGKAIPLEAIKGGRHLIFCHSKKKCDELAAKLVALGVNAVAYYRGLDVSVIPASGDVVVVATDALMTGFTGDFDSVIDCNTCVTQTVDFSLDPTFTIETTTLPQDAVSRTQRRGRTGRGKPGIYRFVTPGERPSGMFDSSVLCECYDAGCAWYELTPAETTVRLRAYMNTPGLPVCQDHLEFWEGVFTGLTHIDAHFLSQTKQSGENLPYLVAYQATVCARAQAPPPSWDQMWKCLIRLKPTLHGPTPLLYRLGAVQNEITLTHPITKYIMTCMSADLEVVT
# Sequence of fMet-Leu-Phe receptor (P21462 whole entry): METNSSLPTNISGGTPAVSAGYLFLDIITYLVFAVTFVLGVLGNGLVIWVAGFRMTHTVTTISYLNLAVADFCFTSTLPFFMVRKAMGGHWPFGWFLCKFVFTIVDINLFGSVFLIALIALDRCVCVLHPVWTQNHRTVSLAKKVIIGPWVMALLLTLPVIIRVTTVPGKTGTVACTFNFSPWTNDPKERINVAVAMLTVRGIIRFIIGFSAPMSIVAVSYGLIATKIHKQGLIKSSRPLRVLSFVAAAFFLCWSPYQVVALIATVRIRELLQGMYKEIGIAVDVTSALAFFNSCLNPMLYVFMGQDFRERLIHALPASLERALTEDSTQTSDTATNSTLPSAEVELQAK
# Sequence of Sphingosine 1-phosphate receptor 2 (O95136 whole entry): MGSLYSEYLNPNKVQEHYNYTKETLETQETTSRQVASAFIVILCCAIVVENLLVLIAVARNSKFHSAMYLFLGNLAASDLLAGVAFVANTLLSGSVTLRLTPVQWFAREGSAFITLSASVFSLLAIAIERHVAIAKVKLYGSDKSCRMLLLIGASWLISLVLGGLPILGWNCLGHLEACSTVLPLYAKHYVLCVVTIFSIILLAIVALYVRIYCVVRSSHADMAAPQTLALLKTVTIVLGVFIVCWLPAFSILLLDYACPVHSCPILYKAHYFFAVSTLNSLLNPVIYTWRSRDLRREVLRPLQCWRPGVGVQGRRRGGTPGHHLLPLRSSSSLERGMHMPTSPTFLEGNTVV
# Sequence of Lytic switch protein BZLF1 (P03206 whole entry): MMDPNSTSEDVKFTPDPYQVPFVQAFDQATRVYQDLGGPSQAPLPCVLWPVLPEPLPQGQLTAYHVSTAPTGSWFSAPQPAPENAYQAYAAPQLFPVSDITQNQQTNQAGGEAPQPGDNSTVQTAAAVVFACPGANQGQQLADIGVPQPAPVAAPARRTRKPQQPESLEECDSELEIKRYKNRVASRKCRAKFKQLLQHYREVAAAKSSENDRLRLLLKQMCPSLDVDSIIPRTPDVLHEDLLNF
# Sequence of Beta-galactosidase (Q8VNN2 whole entry): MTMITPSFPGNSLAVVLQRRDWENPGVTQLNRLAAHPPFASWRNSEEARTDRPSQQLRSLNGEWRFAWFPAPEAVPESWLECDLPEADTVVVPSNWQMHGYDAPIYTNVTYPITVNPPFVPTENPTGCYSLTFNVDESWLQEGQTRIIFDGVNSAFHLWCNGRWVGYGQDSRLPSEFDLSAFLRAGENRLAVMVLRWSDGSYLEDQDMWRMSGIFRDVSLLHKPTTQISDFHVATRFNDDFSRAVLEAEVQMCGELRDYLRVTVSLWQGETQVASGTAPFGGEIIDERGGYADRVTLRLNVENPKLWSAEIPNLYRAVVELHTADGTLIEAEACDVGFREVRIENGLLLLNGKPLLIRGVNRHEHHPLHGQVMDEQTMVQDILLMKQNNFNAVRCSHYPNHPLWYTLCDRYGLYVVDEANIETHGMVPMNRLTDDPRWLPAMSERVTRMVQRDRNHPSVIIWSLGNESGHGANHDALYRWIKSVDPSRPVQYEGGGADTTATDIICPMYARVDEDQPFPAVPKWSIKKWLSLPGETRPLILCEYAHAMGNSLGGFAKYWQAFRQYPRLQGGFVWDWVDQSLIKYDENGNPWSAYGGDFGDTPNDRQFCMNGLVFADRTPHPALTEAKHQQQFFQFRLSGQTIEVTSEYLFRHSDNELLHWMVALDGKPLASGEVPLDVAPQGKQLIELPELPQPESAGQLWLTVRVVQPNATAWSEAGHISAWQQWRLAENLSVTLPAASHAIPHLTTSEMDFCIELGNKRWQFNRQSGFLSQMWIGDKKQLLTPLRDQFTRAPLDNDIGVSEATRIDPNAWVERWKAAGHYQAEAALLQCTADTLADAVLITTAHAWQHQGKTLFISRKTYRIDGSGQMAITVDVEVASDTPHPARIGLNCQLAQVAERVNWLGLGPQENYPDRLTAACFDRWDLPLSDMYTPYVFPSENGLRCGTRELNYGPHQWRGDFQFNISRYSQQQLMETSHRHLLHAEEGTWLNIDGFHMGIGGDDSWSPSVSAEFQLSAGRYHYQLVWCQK
# Sequence of Induced myeloid leukemia cell differentiation protein Mcl-1 (Q07820 whole entry): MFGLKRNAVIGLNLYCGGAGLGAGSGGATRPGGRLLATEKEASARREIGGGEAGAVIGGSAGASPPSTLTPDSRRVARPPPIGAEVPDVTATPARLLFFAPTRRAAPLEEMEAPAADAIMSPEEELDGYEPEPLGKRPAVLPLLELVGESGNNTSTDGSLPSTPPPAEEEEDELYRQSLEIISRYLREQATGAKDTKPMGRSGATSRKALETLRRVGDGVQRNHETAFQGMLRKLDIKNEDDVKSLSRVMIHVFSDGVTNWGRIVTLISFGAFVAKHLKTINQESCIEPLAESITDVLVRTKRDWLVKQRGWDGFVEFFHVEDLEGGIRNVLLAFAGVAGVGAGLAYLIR
compound,measurement,setting,value
CC(=O)Nc1ccc(C(=O)Nc2nc(-c3ccccn3)cs2)cc1,IC50,[1],> 79 µM (inactive)
same,IC50,[2],7.8 µM (active)
same,IC50,[3],38 µM (active)
COc1cccc(OC)c1C(=O)Nc1nc2cc3c(cc2s1)OCO3,IC50,[4],> 111 µM (not active)
same,IC50,[5],15.5 µM (not active)
Cc1cc(C(=O)N2C(C)CCCC2C)no1 (centres undefined),EC50,[6],> 50 µM (not active)
same,EC50,[7],> 50 µM (not active)
same,EC50,[8],> 10 µM (not active)
COc1ccccc1N=Nc1nc(-c2ccccc2)c(-c2ccccc2)[nH]1,EC50,[9],89.6 µM (active)
same,IC50,[10],36.8 µM (inactive)
same,EC50,[11],1.97 µM (active)
same,EC50,[12],> 100 µM (active)
same,IC50,[13],0.587 µM (active)
same,IC50,[14],24 µM (inactive)
same,EC50,[15],> 150 µM (not active)
same,IC50,[16],> 32 µM
same,EC50,[17],23.9 µM (active)
O=C(C1=C(O)C(=O)N(c2ncccn2)C1c1cccc(Cl)c1)c1ccco1 (centres undefined),IC50,[18],> 100 µM (not active)
same,Ki,[19],> 66.7 µM (inactive)
same,IC50,[20],> 100 µM (not active)
CC(C)OC(=O)c1ccc(NC(=S)NC(=O)c2cncc(Br)c2)cc1,IC50,[21],> 100 µM (active)
CCCC[C@@H]1C[C@H]1[C@@H](NC(=O)c1cccs1)c1ccc(Cl)cc1,IC50,[22],2.47 µM (active)
same,CC50,[23],20.8 µM (active)
same,IC50,[24],1.21 µM (active)
CC(=O)Oc1ccc2c(=O)c(Oc3ccccc3)c(C)oc2c1OC(C)=O,CC50,[25],38.1 µM (active)
same,IC50,[26],44.8 µM (active)
CNc1ccc(Br)cc(C(=O)/C=C/c2cccc(Cl)c2Cl)c1=O,IC50,[27],5.02 µM (active)
same,IC50,[28],2.63 µM (active)
CC1(C)C[C@H]2C=C(C=O)[C@]3(C=O)C[C@]3(C)[C@H]2C1 [ISOVELLERAL],IC50,[29],0.253 µM (active)
same,EC50,[30],5.29 µM (inconclusive)
same,EC50,[31],5.11 µM (inconclusive)
same,EC50,[32],5.77 µM (inconclusive)
same,IC50,[33],> 80 µM (inactive)
same,CC50,[34],29.5 µM (active)
same,EC50,[35],0.53 µM (active)
same,EC50,[36],3.8 µM (inconclusive)
same,EC50,[37],< 0.5 µM (active)
same,IC50,[38],4.96 µM (active)
same,EC50,[39],0.575 µM (inconclusive)
